The subject of assay [1] is MsrA-knockdown SK-Hep1 cells. The experiment in a line: Growth of MsrA-knockdown SK-Hep1 cells on Met and Met sulfoxide media. The class given is cell-based, human. The note with it: 0.1 mM, 96 hours. As to the method: Proliferation Assay—Cell growth was quantified using colorimetric MTS assay (Promega). Cells in regular DMEM medium were plated in 96-well plates at 5×10^3 cells/well, washed with PBS, and specialized DMEM media were added that contained Met, Met-SO, Met-RO, or Met-RSO 24 hours after plating. To assay for cell proliferation, a tetrazolium compound [3-(4,5-dimethylthiazol-2-yl)-5-(3-carboxymethoxyphenyl)-2-(4-sulfophenyl)-2H-tetrazolium, inner salt; MTS] and an electron coupling reagent (phenazine methosulfate; PMS) were mixed according to the manufacturer's protocol and then 20 μL of the mixture were added to 100 μL of phenol red-excluded media that further replaced cell culture media. After 90 minutes of incubation at 37° C. in the atmosphere of 5% CO2, cell proliferation was measured at indicated time periods from 0 to 96 hours at 450 nm in a plate reader. Direct counting of viable cells using 0.2% trypan blue was done in 6-well plates. Knockdown of MsrA in SK-Hep1 cells by siRNA—Double stranded siRNAs (Dharmacon) for targeting human MsrA mRNA were used to knockdown this gene in SK-Hep1 cells. Cells were transfected with siRNA by using DharmaFECT™ Transfection Reagent (Dharmacon) according to the manufacturer's protocol. Proliferation of these cells was assayed 60 hours after transfection in comparison with control transfected cells.

The test system of assay [2] is yeast fRMsr-transfected SK-Hep1 cells. The experiment in a line: Growth and morphology of yeast fRMsr-expressing SK-Hep1 cells on Met sulfoxide media. The class given is cell-based, human. The conditions noted are these: 0.1 mM. As for the experimental part:
Proliferation Assay-Cell growth was quantified using colorimetric MTS assay (Promega). Cells in regular DMEM medium were plated in 96-well plates at 5×10^3 cells/well, washed with PBS, and specialized DMEM media were added that contained Met, Met-SO, Met-RO, or Met-RSO 24 hours after plating. To assay for cell proliferation, a tetrazolium compound [3-(4,5-dimethylthiazol-2-yl)-5-(3-carboxymethoxyphenyl)-2-(4-sulfophenyl)-2H-tetrazolium, inner salt; MTS] and an electron coupling reagent (phenazine methosulfate; PMS) were mixed according to the manufacturer's protocol and then 20 μL of the mixture were added to 100 μL of phenol red-excluded media that further replaced cell culture media. After 90 minutes of incubation at 37° C. in the atmosphere of 5% CO2, cell proliferation was measured at indicated time periods from 0 to 96 hours at 450 nm in a plate reader. Direct counting of viable cells using 0.2% trypan blue was done in 6-well plates. Transfection of […] into SK-Hep1 cells-[…]-tag sequence was cloned at the C-terminus of […] sequence was inserted into a mammalian expression vector, pCI-neo (Promega), and the resulting construct was verified by DNA sequencing. […] To establish a stable cell line, cells were selected in the presence of 800 μg/mL G418 sulfate (Promega), and further maintained in the presence of 400 μg/mL G418 sulfate. […]

For a further assay, the system named is CBS. The experiment in a line: Western blot analysis of CBS in SK-Hep1 cells grown on Met and Met sulfoxide media. The class given is cell-based, human. The note with it: 0.1 mM. As to the method:
Analysis of SK-Hep1 and fRMsr-transfected SK-Hep1 cells—SK-Hep1 and fRMsr-transfected SK-Hep1 cells were plated in 6-well plates at 7.5×10^4 cells/well in regular DMEM medium. The medium was changed to Met-free DMEM supplemented with either Met or individual Met sulfoxides at 24 hours after plating. Cells were then collected every 24 hours until 96 hours. Protein concentration was measured by the Bradford assay and the samples were probed by standard immunoblot assays with polyclonal MsrA (kindly provided by Bertrand Friguet), cystathionine beta synthase (CBS) (kindly provided by Ruma Banerjee), and activating transcription factor 3 (ATF3) (Santa Cruz Biotechnology) antibodies.

The subject of another assay is SK-Hep1 cell extracts. The experiment in a line: Specific activity of SK-Hep1 cell extracts for reduction of free Met sulfoxides. It counts as biochemical, human. The conditions noted are these: for Specific activity for each Met-O: SK-Hep1, ± standard deviations from 3 independent experiments. As to the method:
HPLC analysis of media samples-Cells were plated in 6-well plates at 7.5×10^4 cells/well in 1.5 mL of regular DMEM medium. After 24 hours, cells were washed with PBS and the medium was changed to a modified DMEM containing Met, Met-SO, Met-RO, or Met-RSO (0.1 mM of each amino acid). 90 μL of medium from each well was collected at 0, 24, 48, 72, 96 hours and mixed with 10 μL of 100% TCA. After incubation at 4° C. for 10 minutes and centrifugation at 13,000 rpm for 15 minutes, the supernatant (50 μL) was diluted 10 times with distilled water and prepared for OPA derivatization. OPA derivatization of amino acids and HPLC analysis was performed as described (Sharov, V. S., Ferrington, D. A., Squier, T. C., […]. (1999) FEBS Lett. 455, 247-250) with minor modifications. The derivatization reagent was freshly prepared as a stock solution (40 mg of o-phthalaldehyde, 1 mL of methanol, 50 μL, of 2-mercaptoehanol, 5 mL of 0.1 M Na2B4O7, pH 9.5) at room temperature in a capped amber vial. Sample solutions (2-5 μL) were mixed with the OPA derivatization reagent to 100 μL, final volume. Following a 2 minute reaction at room temperature, the mixture was fractionated on a Zorbax Eclipse XDB-C8 column (4.6×150 mm). Changes in Met levels in the fRMsr activity assay were similarly quantified. […] Activity assays of fRMsr-Reaction mixture (40 μL) included 50 mM DTT, 1 mM substrate (Met-RO or Met-SO), and purified enzyme or cell lysate prepared by treatment with […] cell lysis reagent (Sigma). 20 μL of the reaction mixture was mixed with 2 μL of TCA and subjected to OPA derivatization as described above and then injected onto the column to measure endogenous Met level in the samples. An additional 20 μL from the same original reaction mixture were incubated at 37° C. for 30 minutes and then subjected to OPA derivatization by the same procedure using TCA. After derivatization of the sample (2-5 μL) by adding OPA solution to 100 μL as a final volume, 50 μL of the mixture were subjected to an HPLC separation as described above.

This is an account of results in patent US20110178072A1, “STEREOSPECIFICITY OF METHYLSULFINYL REDUCTION” (priority 2008, published 2011).

For the molecule `C[S@+]([O-])CC[C@H](N)C(=O)O` [Met-SO, methionine-S-sulfoxide], the “Growth of MsrA-deficient cells” value in assay [1] was “grew neither”. Moreover, in assay [2], the “Growth of fRMsr-transfected cells” value is recorded as “essentially indistinguishable from that of cells grown in the presence of Met”. The “Expression of CBS” value in the assay with CBS (SK-Hep1 cells) is reported as “CBS levels were decreased”. Besides, in the assay with SK-Hep1 cell extracts, the “Specific activity for each Met-O” value is listed as 38.6 ± 3.6 pmol/min/mg and the “Specific activity of SK-Hep1 cell extracts for reduction of free Met sulfoxide” value is “≈ 38.6 pmol/min/mg protein”.
Take `C[S@@+]([O-])CC[C@H](N)C(=O)O` [Met-RO, methionine-R-sulfoxide]: the “Growth of MsrA-deficient cells” value in assay [1] is reported as “grew neither”. In assay [2], the “Growth of fRMsr-transfected cells” value was “essentially indistinguishable from that of cells grown in the presence of Met”. For the same molecule, the “Expression of CBS” value in the assay on CBS (SK-Hep1 cells) was “reduced expression”. Further, in the assay with CBS (fRMsr-expressing SK-Hep1 cells), the “Expression of CBS” value is on record as “normal CBS levels”. Besides, in the assay on SK-Hep1 cell extracts, the “Specific activity for each Met-O” value is reported as “ND* (A signal corresponding to specific activity less than 5 pmol/min/mg is shown as ND (Not Detectable))” and the “Specific activity of SK-Hep1 cell extracts for reduction of free Met sulfoxide” value is recorded as “No free Met-RO reductase activity was detected”.
